Earlier results, collected in patent publication US20080317862A1, “Organic Compounds Comprising a Glycopyrrolium Salt” (priority 2005, published 2008).

Details: aerosol formulation for treating asthma, single administration of a metered dose

With C[N+]1(C)CCC(OC(=O)C(O)(c2ccccc2)C2CCCC2)C1.[Br-] (racemic) [glycopyrrolate, 3-[(cyclopentyl-hydroxyphenylacetyl)oxy]-1,1-dimethylpyrrolidinium bromide] as the compound, how does the duration of bronchodilation read?
The duration of bronchodilation was “up to 12 hours”.
